In US20240174690A1, “ANNULATED 2-AMINO-3-CYANO THIOPHENES AND DERIVATIVES FOR THE TREATMENT OF CANCER” (BOEHRINGER INGELHEIM INTERNATIONAL GMBH, priority 2021, published 2024):
Where two headings read alike, the source gives them in different places.

How the values were obtained:
GP2D cells = experiment: GP2D proliferation assay (120 h) (colorectal cancer, G12D); assay type: cell-based
Method: GP2D Proliferation Assay (120 h) (Colorectal Cancer, G12D)
GP2D cells (ATCC No. CRL-5807) are dispensed into white 384-well plates, flat and white bottom (Perkin Elmer, 6007680) at a density of 500 cells per well in 40 μl DMEM (Sigma, D6429)+1×GlutaMAX (Gibco, 35050038)+10% FCS (fetal calf serum). […] Compounds (10 mM stock in DMSO) are added at logarithmic dose series using the HP Digital Dispenser D300 (Tecan), including DMSO controls and normalizing for added DMSO. For the TO time point measurement, untreated cells are analyzed at the time of compound addition. Plates are incubated for 120 h, and cell viability is measured using CellTiter-Glo luminescent cell viability reagent (Promega product code G7570). Viability (stated as percent of control) is defined as relative luminescence units RLU of each well divided by the RLU of cells in DMSO controls. IC50 values are determined from viability measurements by non-linear regression using a four parameter model.

MKN1 cells = experiment: MKN1 CTG proliferation assay (120 h) (gastric cancer, wt amplified); assay type: cell-based; conditions: Homo sapiens
Method: MKN1 CTG Proliferation Assay (120 h) (Gastric Cancer, Wt Amplified)
MKN1 cells (JCRB0252) are dispensed into white 384-well plates, flat and white bottom (Corning Costar, PNr.: 3570) at a density of 400 cells per well in 50 μL RPMI 1640 (PAN-Biotech, PNr.: P04-18047)+10% FCS (HyClone, PNr.: SH30084.03) (assay 1) or into white 384-well plates, flat and white bottom (Perkin Elmer, 6007680) at a density of 500 cells per well in 40 μl RPMI (Gibco, PNr.: 21875034)+10% FCS (HyClone, PNr.: SH30084.03) (assay 2) or into black 384-well plates, flat and clear bottom (Greiner, PNr. 781091) at a density of 200 cells per well in 60 μl RPMI-1640 (Gibco #A10491)+10% FCS (HyClone, PNr.: SH30084.03)+PenStrep (Gibco, PNr.15140-122) (assay 3). […] Compounds (10 mM stock in DMSO) are added at logarithmic dose series using the HP Digital Dispenser D300 (Tecan) (assay 1+2) or the ECHO acoustic liquid handler system (Beckman Coulter) (assay 3), including DMSO controls and normalizing for added DMSO. Plates are incubated for 120 h, and cell viability is measured using CellTiter-Glo luminescent cell viability reagent (Promega product code G7570). Viability (stated as percent of control) is defined as relative luminescence units RLU of each well divided by the RLU of cells in DMSO controls. IC50 values are determined from viability measurements by non-linear regression using a four-parameter model.

KRAS (WT)::SOS1 = KRAS (WT)::SOS1 (Homo sapiens (Human), UniProt P01116, C118S); experiment: KRAS::SOS1 AlphaScreen binding assay, KRAS WT
Chain of KRAS (WT)::SOS1 (P01116 other isoform, or with tags, fused parts or gaps C118S): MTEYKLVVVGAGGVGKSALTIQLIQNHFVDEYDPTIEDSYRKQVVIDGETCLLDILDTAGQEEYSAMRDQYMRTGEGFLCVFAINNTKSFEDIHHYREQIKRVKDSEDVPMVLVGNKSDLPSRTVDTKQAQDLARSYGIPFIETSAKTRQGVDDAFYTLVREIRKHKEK
Source text: This assay can be used to examine the potency with which compounds according to the invention binding to (mutated) KRAS inhibit the protein-protein interaction between SOS1 and (mutated) KRAS e.g., KRAS WT, KRAS G12C, KRAS G12D, KRAS G12V, KRAS G13D. […] Low IC50 values in this assay setting are indicative of strong inhibition of protein-protein interaction between SOS1 and KRAS:
These assays measure the inhibitory effect of compounds on KRAS mutant protein-protein interactions using the Alpha Screen technology by Perkin Elmer.
The following (mutant) enzyme forms of KRAS and interacting proteins are used in these assays at the given concentrations: • KRAS (G12D) 1-169, N-terminal 6His-tag, C-terminal avi-tag (Xtal BioStructures, Inc.); final assay concentration 10 nM and SOS1 564-1049, N-terminal 229 GST-tag, TEV cleavage site (Viva Biotech Ltd); final assay concentration 5 nM; • KRAS (G12C) 1-169, N-terminal 6His-tag for purification, cleaved off, C-terminal avi-tag, biotinylated, mutations: C51S, C80L, C118S (in house); final assay concentration 7.5 nM and SOS1 564-1049, N-terminal 229 GST-tag, TEV cleavage site (Viva Biotech Ltd); final assay concentration 5 nM; • KRAS (G12V) 1-169, N-terminal 6His-tag for purification, cleaved off, C-terminal avi-tag, biotinylated, TEV cleavage site, mutation: C118S, GDP loaded (in house); final assay concentration 10 nM and SOS1 564-1049, N-terminal 229 GST-tag, TEV cleavage site (Viva Biotech Ltd); final assay concentration 10 nM; • KRAS (G13D) 1-169, N-terminal 6His-tag for purification, cleaved off, C-terminal avi-tag, biotinylated, TEV cleavage site, mutation: C118S, GDP loaded (in house); final assay concentration 10 nM and SOS1 564-1049, N-terminal 229 GST-tag, TEV cleavage site (Viva Biotech Ltd); final assay concentration 10 nM; • KRAS (WT) 1-169, N-terminal 6His-tag for purification, cleaved off, C-terminal avi-tag, biotinylated, TEV cleavage site, mutation: C118S, GDP loaded (in house); final assay concentration 10 nM and SOS1 564-1049, N-terminal 229 GST-tag, TEV cleavage site (Viva Biotech Ltd); final assay concentration 10 nM.
Test compounds dissolved in DMSO are dispensed onto assay plates (Proxiplate 384 PLUS, white, PerkinElmer; 6008289) using an Access Labcyte Workstation with the Labcyte Echo 55×. For the chosen highest assay concentration of 100 μM, 150 nL of compound solution are transferred from a 10 mM DMSO compound stock solution. A series of eleven fivefold dilutions per compound are transferred to the assay plate, compound dilutions are tested in duplicates. DMSO are added as backfill to a total volume of 150 nL.
The assays run on a fully automated robotic system in a darkened room below 100 Lux. To 150 nl of compound dilution 10 μl of a mix including KRAS mutant protein, SOS1 (final assay concentrations see above) and GDP nucleotide (Sigma G7127; final assay concentration 10 μM) in assay buffer (1×PBS, 0.1% BSA, 0.05% Tween 20) are added into columns 1-24.
After 30 minutes incubation time 5 μl of Alpha Screen bead mix in assay buffer are added into columns 1-23. Bead mix consists of AlphaLISA Glutathione Acceptor Beads (PerkinElmer, Cat No AL109) and AlphaScreen Streptavidin Donor Beads (PerkinElmer Cat No 6760002) in assay buffer at a final assay concentration of 10 μg/ml each.
Plates are kept at room temperature in a darkened incubator. After an additional 60 minutes incubation time the signal is measured in a PerkinElmer Envision HTS Multilabel Reader using the AlphaScreen specs from PerkinElmer.
Each plate contains up to 16 wells of a negative control depending on the dilution procedure (platewise or serial) (DMSO instead of test compound; with KRAS mutant::SOS1 GDP mix and bead mix; column 23) and 16 wells of a positive control (DMSO instead of test compound; with KRAS mutant::SOS1 GDP mix w/o bead mix; column 24).
As internal control known inhibitors of KRAS mutant::SOS1 interaction can be measured on each compound plate. […]

[1] = MKN-1, assay 3, CTG 120 h, read-out: MKN1 (assay 3) IC50
[2] = MKN-1, assay 2, CTG 120 h, read-out: MKN1 (assay 2) IC50

Row | IC50 (GP2D cells) | IC50 (MKN1 cells; [1]) | IC50 (KRAS (WT)::SOS1) | IC50 (MKN1 cells; [2]) | IC50 (MKN1 cells; MKN-1, assay 1, CTG 120 h, read-out: MKN1 (assay 1) IC50) | SMILES
1 | 463 nM | 426 nM | 4 nM |  |  | C[C@H](Oc1cc(-n2cncc3ccnc2-3)nc(-c2noc3c2CCC[C@@]32CCCc3sc(N)c(C#N)c32)n1)[C@@H]1CCCN1C [II-105]
2 | 6 nM | 501 nM | 20 nM | > 3000 nM |  | C[C@H](Oc1cc(N2CC[C@H](N(C)C)C2)nc(-c2noc3c2CCC[C@@]32CCCc3sc(N)c(C#N)c32)n1)[C@@H]1CCCN1C [II-49]
3 | 1 nM |  | 4 nM | 499 nM |  | C[C@H](Oc1cc(N2CCNC3(CC3)C2)nc(-c2onc3c2CCC[C@@]32CCCc3sc(N)c(C#N)c32)n1)[C@@H]1CCCN1C [I-5]
4 | 29 nM | 994 nM | 5 nM |  |  | C[C@H](Oc1cc(-n2cc3c(n2)CCNC3)nc(-c2noc3c2CCC[C@@]32CCCc3sc(N)c(C#N)c32)n1)[C@@H]1CCCN1C [II-53]
5 | 46 nM | 876 nM | 10 nM |  |  | C[C@H](Oc1cc(N2CCN(C)CC2)nc(-c2noc3c2CCC[C@@]32CCCc3sc(N)c(C#N)c32)n1)[C@@H]1CCCN1C [II-55]
6 | 37 nM | 18 nM | 4 nM |  |  | C[C@H](Oc1cc(N2CCOC3(COC3)C2)nc(-c2noc3c2CCC[C@@]32CCCc3sc(N)c(C#N)c32)n1)[C@@H]1CCCN1C [II-77]
7 | 824 nM |  | 5 nM |  |  | C[C@H](Oc1cc(-c2cnn(C)n2)nc(-c2noc3c2CCC[C@@]32CCCc3sc(N)c(C#N)c32)n1)[C@@H]1CCCN1C [II-86]
8 | 26 nM | 51 nM | 3 nM |  | 32 nM | C[C@H](Oc1cc([C@@H]2CCOC2)nc(-c2noc3c2CCC[C@@]32CCCc3sc(N)c(C#N)c32)n1)[C@@H]1CCCN1C [II-94]
9 | 510 nM |  | 4 nM |  |  | C[C@H](Oc1cc(-c2ccn3ncnc3c2)nc(-c2noc3c2CCC[C@@]32CCCc3sc(N)c(C#N)c32)n1)[C@@H]1CCCN1C [II-104]
